The values that follow come from ChEMBL document CHEMBL1201862, “PubChem BioAssay data set” (2004).

Holding throughout (assay): growth of human tumour cells (NCI), 48 h
The test system of experiment [1] is EKVX.
Experiment [2] deals with SW-620.
Experiment [3] relates to UACC-257.
The test system of experiment [4] is KM12.
In experiment [5] the test system is SK-OV-3.
Experiment [6] relates to A549.
For experiment [7], the system named is HOP-62.
The test system of experiment [8] is OVCAR-4.
The subject of experiment [9] is SK-MEL-2.
For experiment [10], the system named is SNB-19.
Experiment [11] deals with OVCAR-8.
For experiment [12], the system named is SK-MEL-28.
The test system of experiment [13] is OVCAR-5.
Experiment [14] relates to TK-10.
Experiment [15] has as its system MOLT-4.

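Where inhibition never reached the appropriate level, the endpoint shown equals the highest concentration tested. Otherwise, values were interpolated linearly from a five-concentration, 48-hour dose response in 96-well plates. Abbreviation: GI50, concentration required for 50% inhibition of growth.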 The source made the active and inactive calls. Cut-off read from the data, not from the text of the source: active = GI50 up to about 1.1 µM and inactive = higher. Bounds are passed on as bounds.

`CCCCCN(CCCCC)C(=O)[C@@H](CCC(=O)OCc1ccccc1)NC(=O)c1cc2ccccc2[nH]1`: the GI50 in [1] was > 100 µM (inactive); in experiment [2], > 100 µM (inactive); in experiment [3] it was 39.3 µM (inactive); in [4], 7.67 µM (inactive); in [5], > 100 µM (inactive); in experiment [6], > 100 µM (inactive). The GI50 in experiment [7] was > 100 µM (inactive); in experiment [8], > 100 µM (inactive); in experiment [9], > 100 µM (inactive); in [10], > 100 µM (inactive); in experiment [11], 6.15 µM (inactive); in experiment [12], > 100 µM (inactive). Also, the GI50 in experiment [13] is > 100 µM (inactive).
On to `CCOC(=O)CC1=N/C(=N/C(=N)N[N+](=O)[O-])SC1`, for which the GI50 in experiment [1], in experiment [2], in experiment [3], in [4], in experiment [5] and in [6] was > 100 µM (inactive) each time. Moreover, the GI50 in experiment [14], in experiment [7], in experiment [8], in [9], in [10] and in experiment [11] was > 100 µM (inactive) in each case. The GI50 in [12] and in experiment [13] was > 100 µM (inactive) each time.
As for `Cc1ccc(C(=O)C(C2=Nc3nnc(N)n3C2=O)C2=Nc3nnc(N)n3C2=O)cc1`, the GI50 in experiment [1], in [2], in [3], in [4], in experiment [5] and in experiment [6] was > 100 µM (inactive) each time. Also, the GI50 in [14], in [15], in experiment [8], in experiment [9], in experiment [10] and in experiment [11] was > 100 µM (inactive) in each case. Besides, the GI50 in [12] and in experiment [13] was > 100 µM (inactive) each time.
As to `O=C1C2C(C(=O)N1O)N(Cc1ccccc1)C(=O)N2Cc1ccccc1` (stereo unspecified), the GI50 in experiment [1], in experiment [2], in experiment [3], in experiment [4], in experiment [5] and in [6] was > 100 µM (inactive) each time. In addition, the GI50 in experiment [14], in experiment [7], in experiment [15], in experiment [8], in experiment [10] and in [11] was > 100 µM (inactive) in each case. Besides, the GI50 in [12] and in experiment [13] was > 100 µM (inactive) each time.
Regarding `O=C1O[C@@H](c2ccccc2)C[C@H]1CN1CCOCC1`, the GI50 in experiment [1] was > 100 µM (inactive); in [2], > 100 µM (inactive); in [3], > 100 µM (inactive); in [4], 89.5 µM (inactive); in experiment [5] it was 68.1 µM (inactive); in experiment [6], > 100 µM (inactive). Also, the GI50 in [14] is 84.9 µM (inactive); in [7] it was > 100 µM (inactive); in experiment [15], 33 µM (inactive); in experiment [8], > 100 µM (inactive); in experiment [9], > 100 µM (inactive); in experiment [11] it was > 100 µM (inactive). For the same compound, the GI50 in experiment [12] and in experiment [13] was > 100 µM (inactive) in each case.
Turning to `CC(C)C(=O)Nc1nc2c(ncn2C2OC(CO)C(O)C2O)c(=O)[nH]1` (stereo unspecified), the GI50 in experiment [1], in [2], in [3], in experiment [4], in [5] and in experiment [6] was > 100 µM (inactive) in each case. Also, the GI50 in [14], in experiment [7], in [15], in experiment [8], in experiment [9] and in [11] was > 100 µM (inactive) throughout. For the same compound, the GI50 in [12] and in [13] was > 100 µM (inactive) each time.
`C/C(CC(=O)Nc1cccc(Cl)c1C)=N\NC(=O)c1ccncc1`: the GI50 in experiment [1], in [2], in experiment [3], in experiment [4], in [5] and in [6] was > 100 µM (inactive) each time. The GI50 in experiment [14], in experiment [7], in [15], in [9], in [11] and in [12] was > 100 µM (inactive) each time. Besides, the GI50 in experiment [13] is > 100 µM (inactive).
Take `CCOC(=O)C1(C(=O)OCC)OC(=O)NC2=C1CCCC2`: the GI50 in experiment [1], in experiment [2], in experiment [3], in [4], in experiment [5] and in [6] was > 100 µM (inactive) throughout. Moreover, the GI50 in [14], in experiment [7], in experiment [15], in experiment [9], in experiment [10] and in experiment [11] was > 100 µM (inactive) in each case. Besides, the GI50 in experiment [12] and in experiment [13] was > 100 µM (inactive) in each case.
As to `OC1/C(=C/c2ccccc2)CNC/C1=C\c1ccccc1` (stereo unspecified), the GI50 in experiment [1], in experiment [2], in [3], in experiment [4], in experiment [5] and in experiment [6] was > 100 µM (inactive) each time. Besides, the GI50 in experiment [14], in [7], in [15], in [8], in [10] and in experiment [11] was > 100 µM (inactive) in each case. In addition, the GI50 in experiment [12] and in experiment [13] was > 100 µM (inactive) each time.
`COc1ccc2c(c1)CCc1c(-c3n[nH]c4c3CCc3cc(OC)ccc3-4)n[nH]c1-2`: the GI50 in [1] was 31.3 µM (inactive); in experiment [2], 17.9 µM (inactive); in experiment [3] it was 21.5 µM (inactive); in [4], 33.9 µM (inactive); in [5] it was 6.25 µM (inactive); in [6] it was 30.3 µM (inactive). The GI50 in experiment [14] is > 100 µM (inactive); in experiment [7] it was 24 µM (inactive); in [15] it was 58.6 µM (inactive); in experiment [9], 43.9 µM (inactive); in experiment [10], 76.9 µM (inactive); in experiment [11] it was 37.8 µM (inactive). Moreover, the GI50 in experiment [12] was 33.8 µM (inactive); in experiment [13] it was > 100 µM (inactive).
Turning to `CC(C)(O)[C@@H]1CCC(C)([C@H]2[C@@H](O)CC3(C)C4CC(OC5OC(CO)C(O)C(O)C5O)C5C(C)(C)[C@@H](OC6OCC(O)C(O)C6O)CC[C@@]56C[C@@]46CC[C@]23C)O1` (stereo partly specified), the GI50 in experiment [1], in [2], in experiment [3], in experiment [4], in experiment [5] and in experiment [6] was > 100 µM (inactive) throughout. The GI50 in experiment [14], in [15], in [8], in experiment [9], in experiment [10] and in experiment [11] was > 100 µM (inactive) in each case. The GI50 in [12] and in [13] was > 100 µM (inactive) throughout.
Regarding `COc1cc2c(c(OC)c1OC)-c1ccc(SC)c(=O)cc1[C@@H](NC(=O)c1cccc([N+](=O)[O-])c1)CC2`, the GI50 is 0.0386 µM (active) in experiment [1]; 0.0276 µM (active) in [2]; < 0.01 µM (active) in [3]; < 0.01 µM (active) in experiment [4]; 0.021 µM (active) in [5]; 0.047 µM (active) in experiment [14]. In addition, the GI50 was 0.0257 µM (active) in [7]; 0.0202 µM (active) in [15]; 13.1 µM (inactive) in [8]; 0.024 µM (active) in experiment [11]; 0.0414 µM (active) in experiment [12]; > 100 µM (inactive) in experiment [13].
On to `Cn1c(=O)nc2n(-c3cccc(Br)c3)c3ccccc3nc-2c1=O`, for which the GI50 is 3.79 µM (inactive) in experiment [1]; 2.61 µM (inactive) in [2]; 2.09 µM (inactive) in experiment [3]; 4.8 µM (inactive) in experiment [4]; 21.3 µM (inactive) in experiment [5]; 2.92 µM (inactive) in experiment [6]. Also, the GI50 in experiment [14] is 11.3 µM (inactive); in experiment [7] it was 14.8 µM (inactive); in [8], 3.71 µM (inactive); in experiment [9], 5.06 µM (inactive); in [10], 1.38 µM (inactive); in experiment [11] it was 3.56 µM (inactive). Besides, in experiment [13], the GI50 is 13.3 µM (inactive).
For `CCN(CC)CCNc1ccc2nnn3c4ccc(OC)cc4c(=O)c1c23`, the GI50 was 3.58 µM (inactive) in [2]; 12.5 µM (inactive) in experiment [3]; 3.27 µM (inactive) in experiment [4]; 10.2 µM (inactive) in experiment [5]; 5.56 µM (inactive) in experiment [6]; 9.25 µM (inactive) in experiment [14]. Also, the GI50 was 11.1 µM (inactive) in experiment [7]; 1.93 µM (inactive) in experiment [15]; 6.46 µM (inactive) in [8]; 14.2 µM (inactive) in experiment [9]; 11.4 µM (inactive) in experiment [10]; 4.31 µM (inactive) in experiment [11]. Further, the GI50 in experiment [12] was 15.6 µM (inactive); in experiment [13] it was 11 µM (inactive).
